Laboratory results reported in patent publication US6403576B1, “Antifungal and antiparasitic compounds” (priority 1998, dated 2002).
≈ marks a conversion by molar mass, not a printed value. Read-outs that look alike come from different tables or passages of the source. One block for each compound: values may come before it.

Key:
[1] = test system: Leishmania major promastigotes; settings: cited from earlier work
[2] = rats; cited from earlier work
[3] = in vivo; cited from earlier work
[4] = test system: Tritrichomonas foetus KV-1; test: Trichomonad MIC assay, 96-well, 48 h; format: cell-based
Procedure: (§1) Trichomonad In Vitro and in Vivo Drug Screening Methods.(a) In Vitro: Several strains of T. vaginalis are maintained, covering the spectrum of metronidazole resistance: CDC85 (highly resistant); RU384, RU383, IR78 (moderately resistant); NYH286, RU284, RU393, C1-NIH (sensitive). These strains are routinely cultivated in a non-defined medium incorporating tryptose, yeast extract, maltose and supplemented with 10% horse serum.
(§2) In in vitro drug studies, plant extracts are tested using a 96-well plate assay as described by Meingassner et al., (1978, Antimicrob Agents Chemother 13, 1-3). This method uses only 200 ul of medium/well and thus uses very little plant extract. Results (in triplicate) are presented as “Minimal Inhibitory Concentration” (MIC) the lowest concentration completely blocking growth (Meingassner et al., 1978, supra). This method is also useful in comparing susceptibility of various strains (Meingassner et al., 1978, supra; Yarlett et al., 1987, Mol Biochem Parasitol 24, 255-261). […] Since vaginal O2 tensions are 1/20th to ¼th of atmospheric (Wagner et al., 1978, Fertil Steril 30, 50-53), it is more physiological to do drug sensitivity testing under conditions approaching this.
(§3) The trichomonad screen consists of two human pathogenic Trichomonas vaginalis strains and a livestock parasite Tritrichomonas foetus. The T. vaginalis isolates include a metronidazole sensitive isolate (C1-NIH: ATCC 30001) and a strain highly resistant to metronidazole (CDC-085: ATCC 50143). […] Table 4 details data from the initial group of 19 primary extracts. […] The results to Dec. 31, 1997 appear in Table 5.

[5] = test system: Trichomonas vaginalis strain C1-NIH (ATCC #30001); test: Trichomonad MIC assay, 96-well, 48 h; format: cell-based
Procedure: as §1, §2, §3

[6] = test system: Trichomonas vaginalis CDC-085 (ATCC#50143); test: Trichomonad MIC assay, 96-well, 48 h; format: cell-based
Procedure: as §1, §2, §3

[7] = cited from earlier work
J-774 A.1 macrophages = settings: 10 uM; not from mevalonate; cited from earlier work
[8] = 60 mg/day for 3 months; cited from earlier work

Structure (SMILES): Nc1ccc(S(=O)(=O)c2ccc(N)cc2)cc1 [Dapsone, 4,4′-diaminodiphenyl sulfone]
reversibility of inhibition by p-aminobenzoate (PABA) folate or thymidine [1]: not reversible

Structure (SMILES): CC/C(=C(/c1ccc(OCCN(C)C)cc1)c1cccc(O)c1)c1ccccc1 [Droloxifene]
reduced total serum cholesterol compared to controls [2]: 65-70%

Structure (SMILES): Nc1nc(N)nc(Nc2ccc([As]3SCC(CO)S3)cc2)n1 (stereo not shown) [Melarsoprol]
incidence of cerebral episodes [3]: 3-5%

MIC ([4]; Table 4, 48 hrs, read-out: MIC KV-1 48 hrs): 4 µg/mL (≈ 23.4 µM)
MIC ([5]; ATCC30001, Table 4, 48 hrs, read-out: MIC C1-HIH 48 hrs): 3 µg/mL (≈ 17.5 µM)
MIC ([6]; ATCC50143, Table 4, 48 hrs, metronidazole-resistant strain, read-out: MIC CDC-085 48 hrs): 400 µg/mL (≈ 2340 µM)
Structure (SMILES): Cc1ncc([N+](=O)[O-])n1CCO [Metronidazole]
MIC ([4]; Table 5, new plant extracts, read-out: MIC KV1): 3 µg/mL (≈ 17.5 µM)
MIC ([5]; ATCC30001, Table 5, new plant extracts, read-out: MIC C1-NIH): 3 µg/mL (≈ 17.5 µM)
MIC ([6]; ATCC50143, Table 5, new plant extracts, read-out: MIC CDC-085): 400 µg/mL (≈ 2340 µM)

Structure (SMILES): CC(=O)N1CCN(c2ccc(OCC3COC(Cn4ccnc4)(c4ccc(Cl)cc4Cl)O3)cc2)CC1 (stereo not shown) [ketoconazole]
decreased plasma cholesterol from pretreatment baseline ([7]; 200 mg/day): 15%
decreased plasma cholesterol from pretreatment baseline ([7]; 1200 mg/day): 27%

Structure (SMILES): CC(C)=CCC/C(C)=C/C=C/C(C)=C/C=C/C(C)=C/C=C/C=C(C)/C=C/C=C(C)/C=C/C=C(\C)CCC=C(C)C [lycopene]
cholesterol synthesis inhibited from acetate (J-774 A.1 macrophages): 73%
decrease in plasma LDL cholesterol [8]: 14%
